Tests used:
Format in all cases: cell-based, Human
Ogg1 = assay: Cellular expression of DNA repair enzyme Ogg1 in fibroblasts (microfiltration blot, immunodetection); details: treatment level 0.1%, 24 hours, FIG. 5
Description: Human fibroblasts were seeded into culture flasks and grown at 37±2° C. and 5±1% CO2 using FGM. When a sufficient number of cells had been grown they were transferred to 24-well plates and cultured for a minimum of 24 hours to allow the cells to adhere to the well plates. The cells were then grown until confluent, with a media change every 48 to 72 hours.
The test materials were prepared in FGM. The media was then removed from the culture plates and replaced with 0.5 ml of media supplemented with test material, with each treatment being tested in triplicate. FGM alone served as the untreated control. After the application of the cell culture media, the plates were incubated for 24 hours at 37±2° C. and 5±1% CO2. At the end of the incubation period the culture media was removed and the cells were washed once with phosphate buffered saline. […] The protein concentration of the supernatant was determined using the BCA Protein Assay. […]
After the final wash, the membrane was placed into a BioRad Molecular Imager FX and scanned using an excitation laser and emission filter combination appropriate for the fluorophore. Images produced by the scanner were then analyzed using ImageJ image analysis software.
Fluorescence intensity measurements were expressed in Relative Fluorescence Units (RFU). Mean RFU values for each treatment were then calculated and treatments were compared using a one way ANOVA.

[1] = system: intrinsically-aged dermal fibroblasts; assay: Delayed senescence in intrinsically-aged dermal fibroblasts measured by SA-β-Gal staining; details: for expression of SA-β-Gal (number of stained cells) vs untreated cells: after 18 population doublings, FIG. 1
Description: The peptide isolated from Example 2 was employed to examine the ability of the peptide to delay senescence in dermal fibroblasts aged through a series of population doublings.
Human neonatal fibroblasts were obtained after primary culture (passage 1) and seeded into a set of T-75 flasks in 3 ml/flask of Fibroblast Growth Media (FGM) and grown at 37±2° C. and 5±1% CO2. The cells were expanded through 6 passages (one passage was defined as growing the cells until the flask was confluent and then splitting the cells 1:2, thus one passage was roughly equal to one population doubling). After the 6th passage, the fibroblasts were split into different treatment groups and treated with the various test materials through passage 18. At passage 18 a portion of the fibroblasts were used to assay changes in Senescence Associated-β-Galactosidase (SA-β-Gal), while the remaining fibroblasts were cultured for an additional week (approximately 2 additional passages) in the absence of test materials.
Prior to staining, the fibroblasts were washed once with PBS and then fixed for approximately 6 minutes in fixing solution (2% formaldehyde and 0.2% glutaraldehyde in PBS). After fixing, the cells were washed three times with PBS, followed by the addition of the staining solution (150 mM NaCl, 2 mM MgCl2, 40 mM citric acid (pH 6.0), 12 mM NaPO3, 5 mM potassium ferrocyanide, 5 mM potassium ferricyanide, and […] X-gal). The cells were then incubated at 37° C. overnight in a non-CO2 incubator. On the following day the staining solution was removed and replaced with PBS. The cells were then photographed microscopically and the number of stained cells (SA-β-Gal positive) in each field was counted.

ATM = assay: H2O2 stress-induced premature senescence in epidermal keratinocytes, ATM expression (ELISA); details: 1% treatment level, after 150 μM H2O2 for two hours, FIG. 2
Description: (§1) Human epidermal keratinocytes were seeded into culture flasks and grown at 37±2° C. and 5±1% CO2 using serum free Epilife media supplemented as recommended by the manufacturer. When a sufficient number of cells had been grown they were transferred to 96-well plates and cultured for a minimum of 24 hours to allow the cells to adhere to the well plates. After the initial 24-hour incubation, the media was changed to remove any non-adherent cells and the remaining cells were cultured until confluent, with a media change every 48 to 72 hours as needed.
(§2) Premature cellular senescence was induced by treating the keratinocytes with H2O2. For the H2O2 treatment, the cell culture media was replaced with phosphate buffered saline (PBS) supplemented with 150 μM of H2O2 . The cells were incubated in the H2O2 solution for two hours, after which they were washed once with PBS and then fresh media, either with or without test material, was applied to the cells. At these levels, the H2O2 treatment was not observed to have an impact on cell viability.
(§3) Relative changes in the amount of ATM and p53 expression were determined in the keratinocytes using ELISA based methods. […] After a sufficient level of color development was achieved the plate was read at 460 nm using a plate reader.

p53 = assay: H2O2 stress-induced premature senescence in epidermal keratinocytes, p53 expression (ELISA); details: 1% treatment level, after 150 μM H2O2 for two hours, FIG. 3
Description: as §1, §2, §3

dermal papillae cells = assay: UV stress-induced premature senescence in dermal papillae cells measured by SA-β-Gal staining; details: 20 mJ/cm^2 UVB, 48 hours, FIG. 4
Description: Human dermal papillae cells were seeded into 12 well plates in Dermal Papillae Growth Medium (DPGM) and grown at 37±2° C. and 5±1% CO2 until confluent with a media change every 48 to 72 hours as needed. Once the cells were confluent, the cell culture media was replaced with PBS and the cells were irradiated with 20 mJ/cm^2 UVB. After the UVB irradiation, the PBS was removed and replaced with cell culture media supplemented with the various test materials. Non-supplemented DPGM was used as the untreated control. One set of cells was not exposed to UVB and served as the non-UVB treated control. After the addition of the media, sets of cells were cultured for 48 hours. At the end of the incubation period the cells were obtained and assayed for changes in SA-β-Gal activity.
In a second set of studies, dermal papillae cells were grown and plated as described above. […] This was done to determine the effects of the test materials alone on the markers measured in this study.
After the 48 hour incubation, the cells were washed with PBS and then briefly fixed for 6-7 minutes in fixation buffer (2% formaldehyde and 0.2% glutaraldehyde in PBS). […] On the following day, the wells were examined microscopically and photographed so that the number of stained cells per field could be quantified. The number of positive staining cells in each field was counted. […]

CN[C@@H](Cc1ccccc1)C(=O)N[C@H](C(=O)N[C@@H](C)C(=O)N1CCC[C@H]1C(=O)N[C@@H](Cc1ccccc1)C(=O)N1CCC[C@H]1C(=O)O)C(C)C [Hexapeptide, Phe-Val-Ala-Pro-Phe-Pro]
expression of Ogg1 (RFU) vs untreated control (Ogg1): statistically increase expression of Ogg1
expression of SA-β-Gal (number of stained cells) vs untreated cells ([1]; 0.5% Hexapeptide treatment): untreated cells was statistically higher than that seen at 0.5 or 1.0% Hexapeptide treatment
expression of SA-β-Gal (number of stained cells) vs untreated cells ([1]; 1.0% Hexapeptide treatment): untreated cells was statistically higher than that seen at 0.5 or 1.0% Hexapeptide treatment
expression of SA-β-Gal one week after removal of the Hexapeptide ([1]; 1% treatment): increase but not yet back to normal
expression of SA-β-Gal one week after removal of the Hexapeptide ([1]; all treatments except the 1% treatment): returns to normal
expression of ATM protein vs prematurely senescent untreated keratinocytes (ATM): statistically delay senescence
expression of p53 protein vs prematurely senescent untreated keratinocytes (p53): statistically delay senescence
SA-β-Gal expression (number of stained cells) after UV (dermal papillae cells; 0.5% Hexapeptide): statistically significant decrease
SA-β-Gal expression (number of stained cells) after UV (dermal papillae cells; 1.0% Hexapeptide): statistically significant decrease
